According to US9012420B2, “Aptamer for chymase, and use thereof” (Ribomic Inc., priority 2009, dated 2015):
Oligonucleotides are written 5' to 3', each unit as a sugar letter and its base; * is a phosphorothioate linkage, no mark a phosphodiester; rarer units and linkages stand in square brackets, end groups in braces. Plain capitals give the bases only. r = 2'-OH (RNA); f = 2'-fluoro

T1: chymase (Homo sapiens, UniProt P23946)
T1 sequence (P23946 22-247): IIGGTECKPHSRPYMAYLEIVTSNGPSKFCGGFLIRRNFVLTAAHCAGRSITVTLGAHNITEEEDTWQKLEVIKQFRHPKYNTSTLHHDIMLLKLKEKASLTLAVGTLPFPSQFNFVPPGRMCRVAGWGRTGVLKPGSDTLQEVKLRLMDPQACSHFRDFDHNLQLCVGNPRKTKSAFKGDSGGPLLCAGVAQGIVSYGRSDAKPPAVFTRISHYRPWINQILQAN

T2: LTBP-1 degradation by chymase (Homo sapiens, UniProt P23946)
T2 sequence (P23946 22-247): T1 sequence (P23946 22-247)

B1: 13 (nucleic acid)
chain: rGrGrGrAfCrGrGfUrArGrGrArAfUfUfCfCrGfCrArAfCfCrAfUfCfCfCrGfUrArAfCfUrAfUrGrGfUfUrArGrAfUrArGrArGfUfUrArArArArAfCfCrAfUrArGrArArGrArGfCrGrGfCfCrGfC
modifications: aptamer
B2: 14 (nucleic acid)
chain: rGrGrGrAfCrGrGfUrArGrGrArAfUfUfCfUfCrGfUfUfCfCfUrGrAfCrArGfCrAfUfUfUrGrArGrAfUrArGrAfUfUfUrArArAfCrArArAfCrGfCrAfCrAfUrArGrArArGrArGfCrGrGfCfCrGfC
modifications: aptamer
B3: 4 (nucleic acid)
chain: rGrGrGrAfCrGrGfUrArGrGrArAfUfUfCrGfUfCfCrAfUfUfCfUrAfCrArGrAfUrArGrArGrAfUrArArArGfUrArGrArAfUfUfUrArAfCrArArArAfCrAfUrArGrArArGrArGfCrGrGfCfCrGfC
modifications: aptamer

Target: T1, chymase
Experiment: Surface plasmon resonance (Biacore T100), aptamer immobilized on SA chip, chymase injected as analyte
Type: binding
Set-up: key: ++: a sequence that binds to chymase significantly more strongly than the negative control 40N; +: a sequence that binds to chymase equivalently compared with the negative control 40N
Conditions: Table 1; about 1000 RU nucleic acid immobilized, chymase 0.2 μM analyte, running buffer solution A; compared with 40N
Procedure, shortened: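 Aptamer captured on streptavidin SA chip via 5′-biotin 16-nt poly dT (~1500 RU), and 20 μL of 0.2 μM chymase injected as analyte. Running buffer Solution A for SEQ ID NO: 4-20 and 22-34, Solution C for SEQ ID NO: 38-48. Random 30- or 40-nt RNA served as negative control.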

Molecule	Binding activity as determined using Biacore
B1	++
B2	++
B3	++

Target: T2, LTBP-1 degradation by chymase
Experiment: LTBP-1 degradation inhibitory activity, NHLF culture supernatant, Western blotting
Type: biochemical
Set-up: key: +: detection of a band with the same level of density as an LTBP-1 band in the control; −: absence of detection of LTBP-1 band as clear as that of the negative control
Conditions: final nucleic acid concentration 5 μM, chymase 10 ng/mL (0.33 nM), 37° C. 1 hr; visual determination of LTBP-1 band
Procedure: A third method of evaluation employs a native substrate contained in a cell culture supernatant. Here, degradation of chymase substrate LTBP-1 is detected by Western blotting. NHLF cells (manufactured by Cambrex Bio Science) under freezing are rapidly thawed in a 37° C. water bath, and then suspended in a medium (10% FBS/F-12). After centrifugation at 1200 rpm for 5 minutes, the resulting supernatant is removed, and the cells are re-suspended in the medium. Total volume of 10 mL medium is added to the centrifuged cells, and the cell suspension is transferred to a cell culture dish and cultured at 37° C. in the presence of 5% CO2. The cells are observed morphology and proliferation status under a microscope. When the cells become confluent, the medium is replaced with a serum-free medium (0.2% BSA/F-12). Two days after replacement of the medium, the culture supernatant is collected, dispensed, and stored under freezing at −30° C.
After 40 μL of the NHLF culture supernatant, freshly thawed before use, is dispensed to a tube, 5 μL of the nucleic acid solution diluted with solution C is added thereof. For positive control, chymostatin is diluted with solution C, and this dilution is added in the same manner. For negative control, solution C alone is added. Next, 5 μL of a 100 ng/mL dilution of chymase in solution E (solution C+0.1% BSA, 0.05% sodium azide) is added. For control, a chymase-free tube is prepared. After stirring, the sample is incubated at 37° C. for 1 hour, and mixed with an equal volume of lysis buffer for electrophoresis to terminate the reaction. LTBP-1 in the sample is detected by the procedure of Western blotting described below.
The sample mixed in the lysis buffer is boiled for 3 minutes, and 10 μL of the sample is subjected to electrophoresis on 5-20% acrylamide gel. After completion of the electrophoresis, the sample is transferred onto a nitrocellulose filter, after which the filter is blocked with 5% skimmed milk, 50 mM Tris-HCl (pH 8.0), and 0.05% sodium azide. The filter is reacted with a 2 μg/mL dilution of anti-LTBP-1 monoclonal antibody in 2% BSA, PBS, and 0.05% sodium azide at room temperature overnight. […]
As determined according to LTBP-1 band density and position (molecular weight), the band from the chymase-free well serves for positive control (+), and the band from the negative control well serves for negative control (−). […]
Chymase is deeply involved in the activation of TGF-β, which is one of the important factors causing fibrosis. […] Whether the nucleic acid of the present invention has an inhibitory activity against LTBP-1 degradation by chymase was assessed by the method shown below. […]

Molecule	inhibitory activity on LTBP-1 degradation
56 (GGGUUAGAUAGAGUUAAAAACCC; 2'-fluoro at CU, RNA at AG, backbone not given here) [compound 56]	+
58 (GGGUUGAAGAUAUUAAAGAACCC; 2'-fluoro at CU, RNA at AG, backbone not given here) [compound 58]	−
CC(C)C[C@H](NC(=O)[C@@H](NC(=O)N[C@@H](Cc1ccccc1)C(=O)O)[C@@H]1CCN=C(N)N1)C(=O)N[C@H](C=O)Cc1ccccc1 [chymostatin, reference compound]	+
GGGU(F)U(F)GAAGAU(F)AU(F)U(F)AAAGAAC(F)C(F)C(F) (GGGUUGAAGAUAUUAAAGAACCC; 2'-fluoro at CU, RNA at AG, backbone not given here) [SEQ ID NO: 58]	−
